Data from article PMC4493835 (Frontiers in Microbiology, 2015).
Like-named read-outs stand apart in the source and are kept apart here.

Tests used:
phospholipase D = assay type: cell-based, Phytophthora infestans
[1] = test system: Arthrobacter crystallopoietes; details: cited from earlier work
Phytophthora infestans = assay type: cell-based
Staphylococcus aureus = details: ref Reder-Christ et al., 2012; Schmidt et al., 2014; cited from earlier work
Text: Recently, we discovered Pseudomonas sp. SH-C52, a strain representative of a larger population of Pseudomonads that contributes to the natural suppressiveness of a soil against the fungal plant pathogen Rhizoctonia solani (Mendes et al., [2011]). The gene cluster responsible for the activity of strain SH-C52 against R. solani is encoded by an NRPS, predicted to synthesize a 9-amino-acid chlorinated LP, designated thanamycin (Mendes et al., [2011]). The production and partial structure of thanamycin was resolved by live colony mass spectrometry (Watrous et al., [2012]). Next to thanamycin, stra ...

Pythium ultimum = assay type: cell-based; details: 50 μM brabantamide A
Phytophthora capsici = assay type: cell-based; details: 50 μM brabantamide A
fungi = assay type: cell-based
Rhodotorula pilimanae = details: cited from earlier work
B. megaterium [2] = details: cited from earlier work
B. megaterium [3] = details: cited from earlier work; remark: listed apart in the source
Rhizoctonia solani = details: cited from earlier work
[4] = test system: Pectobacterium atrosepticum; assay type: cell-based; details: inferred from wild type vs thanamycin mutants; data not shown
Method: (§1) For in vitro growth inhibition of fungi and oomycetes, SH-C52 and its derivative strains were, using an overnight culture in KB, spot-inoculated (3 μl) at the periphery of 1/5th strength PDA (pH 7.0) plates. After incubation for 2 days at 25°C, an agar plug (4-mm-diameter) from a freshly grown plate with the target organism was transferred to the center of the 1/5th PDA plate. Inhibition of radial growth of the fungus or the oomycete was monitored from 2 days after incubation up to 2 weeks after incubation, depending on the growth speed of the target organism. For in vitro bacteria and yeast inhibition assays, bacteria and yeast cells were included, after autoclaving and cooling to 45°C, into the 1/5th PDA medium at a concentration of ~10^5 cfu/ml. After solidifying and sufficient drying of the plates, SH-C52 and its derivative strains were, using an overnight culture in KB, spot-inoculated (3 μl) at the periphery of the bacteria or yeast containing plates.

Pseudomonas syringae = assay type: cell-based; details: inferred from wild type vs thanamycin mutants; data not shown
Method: as §1

brabantamide
variation in the phospholipid levels (phospholipase D): no significant variation

brabantamide A
concentration at which the increase in PtdBut levels already occurred (phospholipase D): ≤ 1 µM
other phospholipid levels (phospholipase D): not affected
phosphatidylbutanol (PtdBut) levels (indicates stimulation of phospholipase D) (phospholipase D; n = 2): increase
activity against Arthrobacter crystallopoietes [1]: displays activity
concentration above which mycelial growth is inhibited (less dense mycelial mat) (Phytophthora infestans): above 5 μM
activity against P. infestans (Phytophthora infestans; 1% DMSO, 18°C): has activity
activity against Staphylococcus aureus (Staphylococcus aureus): displays activity
activity against Pythium ultimum (Pythium ultimum): has activity
inhibition of phospholipase A2 (phospholipase A2): no indication was found
activity against Phytophthora capsici (Phytophthora capsici): has activity
antifungal activity (fungi): No antifungal activity

cormycin
activity against the yeast Rhodotorula pilimanae (Rhodotorula pilimanae): active
activity against B. megaterium (B. megaterium [2]): active

corpeptin
activity against B. megaterium (B. megaterium [3]): activity was observed

syringopeptin
activity against B. megaterium (B. megaterium [3]): activity was observed

thanamycin
antifungal activity against Rhizoctonia solani (Rhizoctonia solani): antifungal activity
activity against Pectobacterium atrosepticum [4]: little activity
activity against Pseudomonas syringae (Pseudomonas syringae): little activity
